What was measured:
[1] = tested on: Klebsiella pneumoniae ATCC BAA-2470; test: MIC test of compounds in combination with antibiotics, Klebsiella pneumoniae ATCC BAA-2470; conditions: for MIC of biapenem in combination with compound, Klebsiella pneumoniae ATCC BAA-2470 NDM-1: Biapenem + compound (8 μg/mL); for MIC of meropenem in combination with compound, Klebsiella pneumoniae ATCC BAA-2470 NDM-1: Meropenem + compound (8 μg/mL)
[2] = tested on: Acinetobacter baumannii ARLG-1809 OXA-23; test: MIC test of compounds in combination with antibiotics, Acinetobacter baumannii ARLG-1809; conditions: for MIC of biapenem in combination with compound, Acinetobacter baumannii ARLG-1809 OXA-23: Biapenem + compound (8 μg/mL); for MIC of meropenem in combination with compound, Acinetobacter baumannii ARLG-1809 OXA-23: Meropenem + compound (8 μg/mL)
Experimental: (§1) 2-Fold gradient dilution of antibiotics: 300 μL of CAMHVIB medium was added to columns 2-12 of a 96-deep well plate. In column 1, 24 μL of antibiotic stock solution and 576 µL of CAMHB medium were added and mixed well, with a concentration of 512 μg/mL. 300 µL of antibiotic solution was transferred from the column 1 to the second column and mixed well. The process was repeated until column 11, and the column 12 was a blank control.
(§2) Dilution of combined compounds: the compound was diluted 400-fold to 32 μg/ml with CAMHB medium.
(§3) Working solution aliquoting: 25 μL of antibiotics was aliquoted into the 96-U bottom plate with a pipette, and 25 μL of combined compound was added to each well. If antibiotics were used alone, 25 μL of CAMHB medium was added.
(§4) Inoculum solution preparation: 5-6 single colonies were selected from the plate and suspended in normal saline. The bacterial suspension was adjusted to 0.2 (i.e., 0.5 McFarland turbidity, with a bacterial concentration was about 1 to 2×10^8 CFU/mL) with a turbidity meter. The bacterial suspension was diluted 100-fold with CAMHB medium for later use.
(§5) Inoculation: 50 μL of inoculum solution was transferred to the above 50 μL compound plate with a pipette.
(§6) Culture: The 96-U bottom plate was placed in an incubator at 37° C. for 18 to 20 h.

[3] = tested on: Acinetobacter baumannii WX-AB013; test: MIC test of compounds in combination with antibiotics, Acinetobacter baumannii WX-AB013; conditions: for MIC of biapenem in combination with compound, Acinetobacter baumannii WX-AB013: Biapenem + compound (8 μg/mL); for MIC of meropenem in combination with compound, Acinetobacter baumannii WX-AB013: Meropenem + compound (8 μg/mL)
Experimental: as §1, §2, §3, §4, §5, §6

[4] = tested on: Escherichia coli ARLG 2829; test: MIC test of compounds in combination with antibiotics, Escherichia coli ARLG 2829; conditions: for MIC of biapenem in combination with compound, Escherichia coli ARLG-2829 NDM-5, OXA-1: Biapenem + compound (8 μg/mL); for MIC of meropenem in combination with compound, Escherichia coli ARLG-2829 NDM-5, OXA-1: Meropenem + compound (8 μg/mL)
[5] = tested on: Acinetobacter baumannii WX-AB005; test: MIC test of compounds in combination with antibiotics, Acinetobacter baumannii WX-AB005; conditions: for MIC of biapenem in combination with compound, Acinetobacter baumannii WX-AB005: Biapenem + compound (8 μg/mL); for MIC of meropenem in combination with compound, Acinetobacter baumannii WX-AB005: Meropenem + compound (8 μg/mL)
Experimental: as §1, §2, §3, §4, §5, §6

[6] = tested on: Acinetobacter baumannii ARLG-1791 OXA-23; test: MIC test of compounds in combination with antibiotics, Acinetobacter baumannii ARLG-1791; conditions: for MIC of biapenem in combination with compound, Acinetobacter baumannii ARLG-1791 OXA-23: Biapenem + compound (8 μg/mL); for MIC of meropenem in combination with compound, Acinetobacter baumannii ARLG-1791 OXA-23: Meropenem + compound (8 μg/mL)
Experimental: as §1, §2, §3, §4, §5, §6

[7] = tested on: Acinetobacter baumannii ARLG-1853 OXA-23; test: MIC test of compounds in combination with antibiotics, Acinetobacter baumannii ARLG-1853; conditions: for MIC of biapenem in combination with compound, Acinetobacter baumannii ARLG-1853 OXA-23: Biapenem + compound (8 μg/mL); for MIC of meropenem in combination with compound, Acinetobacter baumannii ARLG-1853 OXA-23: Meropenem + compound (8 μg/mL)
Experimental: as §1, §2, §3, §4, §5, §6

[8] = tested on: Klebsiella pneumoniae ATCC BAA-1705; test: MIC test of compounds in combination with antibiotics, Klebsiella pneumoniae ATCC BAA-1705; conditions: for MIC of biapenem in combination with compound, Klebsiella pneumoniae ATCC BAA-1705 KPC-2: Biapenem + compound (8 μg/mL); for MIC of meropenem in combination with compound, Klebsiella pneumoniae ATCC BAA-1705 KPC-2: Meropenem + compound (8 μg/mL)
Experimental: Strain preparation: the strains to be tested were streaked from glycerol tube at −80° C. onto Mueller Hinton II Agar plates. The plates were then placed in a 37° C. incubator and cultured for 18-24 hours.
Media preparation: CAMHB (Mueller Hinton II Broth): 22 g of powder was dissolved in 1 L of purified water and sterilized at 121° C. for 10 min for use. Saline: 8.5 g NaCl was dissolved in 1 L of pure water and sterilized at 121° C. for 30 min for use.
Preparation of compound and antibiotic stock solutions: the compound and antibiotic were dissolved in DMSO or water to 12.8 mg/mL.
as §1, §2, §3, §4, §5, §6
After the incubation, bacterial growth was visually observed, and the test plate was photographed and recorded.

[9] = tested on: Klebsiella pneumoniae ARLG 1196; test: MIC test of compounds in combination with antibiotics, Klebsiella pneumoniae ARLG 1196; conditions: for MIC of biapenem in combination with compound, Klebsiella pneumoniae ARLG-1196 CTM-1 group, SHV, NDM, TEM: Biapenem + compound (8 μg/mL); for MIC of meropenem in combination with compound, Klebsiella pneumoniae ARLG-1196 CTM-1 group, SHV, NDM, TEM: Meropenem + compound (8 μg/mL)
[10] = tested on: Acinetobacter baumannii ARLG-1852 OXA-23; test: MIC test of compounds in combination with antibiotics, Acinetobacter baumannii ARLG-1852; conditions: for MIC of biapenem in combination with compound, Acinetobacter baumannii ARLG-1852 OXA-23: Biapenem + compound (8 μg/mL); for MIC of meropenem in combination with compound, Acinetobacter baumannii ARLG-1852 OXA-23: Meropenem + compound (8 μg/mL)
Experimental: as §1, §2, §3, §4, §5, §6

SMILES	MIC of biapenem in combination with compound, Klebsiella pneumoniae ATCC BAA-2470 NDM-1 [1]	MIC of meropenem in combination with compound, Klebsiella pneumoniae ATCC BAA-2470 NDM-1 [1]	MIC of biapenem in combination with compound, Acinetobacter baumannii ARLG-1809 OXA-23 [2]	MIC of meropenem in combination with compound, Acinetobacter baumannii ARLG-1809 OXA-23 [2]	MIC of biapenem in combination with compound, Acinetobacter baumannii WX-AB013 [3]	MIC of meropenem in combination with compound, Acinetobacter baumannii WX-AB013 [3]	MIC of biapenem in combination with compound, Escherichia coli ARLG-2829 NDM-5, OXA-1 [4]	MIC of meropenem in combination with compound, Escherichia coli ARLG-2829 NDM-5, OXA-1 [4]	MIC of biapenem in combination with compound, Acinetobacter baumannii WX-AB005 [5]	MIC of meropenem in combination with compound, Acinetobacter baumannii WX-AB005 [5]	MIC of biapenem in combination with compound, Acinetobacter baumannii ARLG-1791 OXA-23 [6]	MIC of meropenem in combination with compound, Acinetobacter baumannii ARLG-1791 OXA-23 [6]	MIC of biapenem in combination with compound, Acinetobacter baumannii ARLG-1853 OXA-23 [7]	MIC of meropenem in combination with compound, Acinetobacter baumannii ARLG-1853 OXA-23 [7]	MIC of biapenem in combination with compound, Klebsiella pneumoniae ATCC BAA-1705 KPC-2 [8]	MIC of meropenem in combination with compound, Klebsiella pneumoniae ATCC BAA-1705 KPC-2 [8]	MIC of biapenem in combination with compound, Klebsiella pneumoniae ARLG-1196 CTM-1 group, SHV, NDM, TEM [9]	MIC of meropenem in combination with compound, Klebsiella pneumoniae ARLG-1196 CTM-1 group, SHV, NDM, TEM [9]	MIC of biapenem in combination with compound, Acinetobacter baumannii ARLG-1852 OXA-23 [10]	MIC of meropenem in combination with compound, Acinetobacter baumannii ARLG-1852 OXA-23 [10]
NC1COCC1Sc1ccc2c(c1C(=O)O)OB(O)C1CC21 (single isomer, unassigned) [Compound 10_P1]	≤0.125 µg/mL	≤0.125 µg/mL	1 µg/mL	2 µg/mL	0.5 µg/mL	2 µg/mL	≤0.125 µg/mL	1 µg/mL	2 µg/mL	4 µg/mL	0.5 µg/mL	4 µg/mL	0.5 µg/mL	2 µg/mL	≤0.125 µg/mL	≤0.125 µg/mL	0.25 µg/mL	2 µg/mL	0.25 µg/mL	1 µg/mL
NC1COCC1Sc1ccc2c(c1C(=O)O)OB(O)C1CC21 (single isomer, unassigned) [Compound 11_P2]	0.25 µg/mL	0.5 µg/mL	0.25 µg/mL	2 µg/mL	0.5 µg/mL	2 µg/mL	≤0.125 µg/mL	≤0.125 µg/mL	1 µg/mL	4 µg/mL	0.25 µg/mL	2 µg/mL	≤0.125 µg/mL	1 µg/mL	0.25 µg/mL	≤0.125 µg/mL	0.25 µg/mL	2 µg/mL	≤0.125 µg/mL	1 µg/mL
CC(Sc1ccc2c(c1C(=O)O)OB(O)C1CC21)C1CC1 (single isomer, unassigned) [Compound 16-b]	1 µg/mL	16 µg/mL	2 µg/mL	4 µg/mL	2 µg/mL	4 µg/mL	0.5 µg/mL	16 µg/mL	4 µg/mL	8 µg/mL	1 µg/mL	8 µg/mL	1 µg/mL	8 µg/mL	0.25 µg/mL	2 µg/mL	0.5 µg/mL	8 µg/mL	0.5 µg/mL	4 µg/mL
CC(Sc1ccc2c(c1C(=O)O)OB(O)C1CC21)C1CC1 (single isomer, unassigned) [Compound 16-c]	0.5 µg/mL	8 µg/mL	2 µg/mL	4 µg/mL	2 µg/mL	4 µg/mL	≤0.125 µg/mL	4 µg/mL	4 µg/mL	8 µg/mL	1 µg/mL	8 µg/mL	1 µg/mL	4 µg/mL	1 µg/mL	8 µg/mL	1 µg/mL	2 µg/mL	1 µg/mL	4 µg/mL
NC1COCC1Sc1ccc2c(c1C(=O)O)OB(O)C1CC21 (single isomer, unassigned) [Compound 10_P2]	0.5 µg/mL	0.25 µg/mL	0.25 µg/mL	2 µg/mL	0.5 µg/mL	1 µg/mL	≤0.125 µg/mL	0.25 µg/mL	1 µg/mL	4 µg/mL	0.25 µg/mL	4 µg/mL	≤0.125 µg/mL	1 µg/mL	≤0.125 µg/mL	≤0.125 µg/mL	0.25 µg/mL	1 µg/mL	≤0.125 µg/mL	1 µg/mL
